The target in experiment [1] is T1, Alpha-1A adrenergic receptor (Rattus norvegicus, UniProt P43140).
T1 sequence (P43140 whole entry): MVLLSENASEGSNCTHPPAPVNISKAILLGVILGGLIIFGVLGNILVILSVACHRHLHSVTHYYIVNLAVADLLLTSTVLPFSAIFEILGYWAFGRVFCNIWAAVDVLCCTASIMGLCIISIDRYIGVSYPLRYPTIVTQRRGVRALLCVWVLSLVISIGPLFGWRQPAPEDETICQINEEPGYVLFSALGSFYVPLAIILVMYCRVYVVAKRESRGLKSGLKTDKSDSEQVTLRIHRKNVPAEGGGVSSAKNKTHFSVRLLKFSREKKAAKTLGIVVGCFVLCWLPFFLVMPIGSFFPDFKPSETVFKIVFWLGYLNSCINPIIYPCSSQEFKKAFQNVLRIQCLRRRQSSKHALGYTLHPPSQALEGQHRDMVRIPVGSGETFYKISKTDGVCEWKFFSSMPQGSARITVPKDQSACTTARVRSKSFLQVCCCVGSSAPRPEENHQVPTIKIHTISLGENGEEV
Description: DRUGMATRIX: Alpha-1A adrenergic receptor radioligand binding (ligand: prazosin). It is filed as cell membranes, Wistar, Submaxillary gland, Membrane. The following applies: Not Active = under 50% inhibition at 10 µM; for Ki: read-out: Ki.

For experiment [2], the target named is T2, Nitric oxide synthase, inducible (Mus musculus, UniProt P29477).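 Note: inhibition of iNOS enzyme activity measured with L-arginine as substrate; in other assays of this panel Not Active means under 50% inhibition at 10 µM.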
T2 sequence (P29477 whole entry): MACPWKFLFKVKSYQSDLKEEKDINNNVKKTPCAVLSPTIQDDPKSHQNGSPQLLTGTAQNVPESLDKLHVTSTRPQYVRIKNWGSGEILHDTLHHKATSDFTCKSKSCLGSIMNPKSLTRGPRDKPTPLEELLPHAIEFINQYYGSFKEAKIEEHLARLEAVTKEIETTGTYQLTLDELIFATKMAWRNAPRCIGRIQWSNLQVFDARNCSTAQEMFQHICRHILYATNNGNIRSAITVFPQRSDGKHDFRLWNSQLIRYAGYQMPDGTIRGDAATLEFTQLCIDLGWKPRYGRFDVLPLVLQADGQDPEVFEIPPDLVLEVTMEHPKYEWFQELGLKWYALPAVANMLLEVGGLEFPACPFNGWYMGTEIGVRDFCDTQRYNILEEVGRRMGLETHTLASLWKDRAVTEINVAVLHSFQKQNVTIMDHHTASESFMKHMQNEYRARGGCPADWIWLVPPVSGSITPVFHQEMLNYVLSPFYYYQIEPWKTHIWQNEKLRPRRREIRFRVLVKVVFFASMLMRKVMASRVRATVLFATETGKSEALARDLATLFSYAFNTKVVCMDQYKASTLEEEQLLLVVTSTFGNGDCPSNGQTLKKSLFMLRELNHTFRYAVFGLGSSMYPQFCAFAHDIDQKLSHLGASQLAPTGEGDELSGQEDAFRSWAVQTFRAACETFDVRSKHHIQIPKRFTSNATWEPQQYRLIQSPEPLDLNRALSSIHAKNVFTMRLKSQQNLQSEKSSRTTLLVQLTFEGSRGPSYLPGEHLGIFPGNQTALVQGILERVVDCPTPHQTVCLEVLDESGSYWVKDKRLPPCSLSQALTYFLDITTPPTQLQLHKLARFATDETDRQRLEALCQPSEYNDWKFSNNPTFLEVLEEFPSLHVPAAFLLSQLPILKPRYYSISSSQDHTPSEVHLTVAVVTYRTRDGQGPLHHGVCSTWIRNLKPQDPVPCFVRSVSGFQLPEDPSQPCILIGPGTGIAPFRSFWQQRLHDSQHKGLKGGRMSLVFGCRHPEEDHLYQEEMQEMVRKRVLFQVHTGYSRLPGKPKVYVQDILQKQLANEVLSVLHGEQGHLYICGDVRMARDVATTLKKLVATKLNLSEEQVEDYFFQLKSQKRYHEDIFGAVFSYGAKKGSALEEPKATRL
More on the design: species or system Escherichia coli.

The target of the next experiment is T3, Cathepsin G (Homo sapiens, UniProt P08311).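 Note: inhibition of Cathepsin G enzyme activity, tested on an AMC-conjugated peptide substrate; in other assays of this panel Not Active means under 50% inhibition at 10 µM.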
T3 sequence (P08311 whole entry): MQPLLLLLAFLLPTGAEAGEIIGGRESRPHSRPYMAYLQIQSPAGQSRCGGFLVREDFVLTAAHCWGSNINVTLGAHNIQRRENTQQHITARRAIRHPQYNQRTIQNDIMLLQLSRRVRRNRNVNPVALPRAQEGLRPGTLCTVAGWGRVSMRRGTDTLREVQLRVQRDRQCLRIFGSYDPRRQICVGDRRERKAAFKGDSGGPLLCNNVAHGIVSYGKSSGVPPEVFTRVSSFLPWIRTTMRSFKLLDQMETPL
It is filed as tissue-based. As to conditions: neutrophil.

The next experiment concerns the target T4, Neutrophil elastase (Homo sapiens, UniProt P08246).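 Note: inhibition of neutrophil elastase enzyme activity, measured with a p-nitroanilide-linked peptide substrate; in other assays of this panel Not Active means under 50% inhibition at 10 µM.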
T4 sequence (P08246 whole entry): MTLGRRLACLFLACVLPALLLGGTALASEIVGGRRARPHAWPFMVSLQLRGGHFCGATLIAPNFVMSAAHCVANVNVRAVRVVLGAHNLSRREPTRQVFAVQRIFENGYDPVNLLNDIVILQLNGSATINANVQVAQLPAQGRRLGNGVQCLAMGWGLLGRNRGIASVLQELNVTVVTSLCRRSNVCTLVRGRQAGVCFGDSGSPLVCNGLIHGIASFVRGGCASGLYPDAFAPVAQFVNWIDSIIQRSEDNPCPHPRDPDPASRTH
It is filed as tissue-based.

In experiment [3] the target is Beta-2 adrenergic receptor (Homo sapiens, UniProt P07550). Description: DRUGMATRIX: Adrenergic beta2 radioligand binding (ligand: [3H] CGP-12177). It is filed as cell membranes, CHO, Membrane. The following applies: Not Active = under 50% inhibition at 10 µM.
The target of another experiment is Vasopressin V1a receptor (Homo sapiens, UniProt P37288). It is filed as cell membranes, Membrane. As to conditions: hek293. Note: in other assays of this panel Not Active means under 50% inhibition at 10 µM.
In a further experiment the target is Nitric oxide synthase 1 (Rattus norvegicus, UniProt P29476). It is filed as tissue-based, Cerebellum. Note: in other assays of this panel Not Active means under 50% inhibition at 10 µM.
Experiment [4] deals with Platelet-activating factor receptor (Homo sapiens, UniProt P25105). It is filed as tissue-based.
Platelet-activating factor receptor, sequence (P25105 whole entry): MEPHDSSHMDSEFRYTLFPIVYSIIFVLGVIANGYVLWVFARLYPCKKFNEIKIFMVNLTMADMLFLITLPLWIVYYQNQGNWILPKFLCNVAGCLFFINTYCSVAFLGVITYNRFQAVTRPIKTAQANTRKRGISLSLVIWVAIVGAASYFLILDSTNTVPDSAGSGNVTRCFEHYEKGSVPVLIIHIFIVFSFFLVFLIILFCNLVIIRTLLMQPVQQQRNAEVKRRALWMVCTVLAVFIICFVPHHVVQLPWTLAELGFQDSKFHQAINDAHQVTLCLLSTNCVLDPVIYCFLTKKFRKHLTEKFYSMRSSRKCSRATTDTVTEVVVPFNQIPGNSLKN

Beta-2 adrenergic receptor, sequence (P07550 whole entry): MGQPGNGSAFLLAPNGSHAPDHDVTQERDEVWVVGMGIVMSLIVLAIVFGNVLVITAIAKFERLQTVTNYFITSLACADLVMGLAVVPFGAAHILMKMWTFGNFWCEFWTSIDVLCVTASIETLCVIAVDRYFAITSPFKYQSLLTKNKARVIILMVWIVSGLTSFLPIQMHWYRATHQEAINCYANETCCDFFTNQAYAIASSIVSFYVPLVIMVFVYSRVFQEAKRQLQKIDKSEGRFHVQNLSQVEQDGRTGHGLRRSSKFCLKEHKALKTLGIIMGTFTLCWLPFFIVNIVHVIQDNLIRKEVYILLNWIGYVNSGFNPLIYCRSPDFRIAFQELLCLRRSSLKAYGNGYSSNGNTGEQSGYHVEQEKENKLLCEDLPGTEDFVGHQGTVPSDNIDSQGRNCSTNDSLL
Vasopressin V1a receptor, sequence (P37288 whole entry): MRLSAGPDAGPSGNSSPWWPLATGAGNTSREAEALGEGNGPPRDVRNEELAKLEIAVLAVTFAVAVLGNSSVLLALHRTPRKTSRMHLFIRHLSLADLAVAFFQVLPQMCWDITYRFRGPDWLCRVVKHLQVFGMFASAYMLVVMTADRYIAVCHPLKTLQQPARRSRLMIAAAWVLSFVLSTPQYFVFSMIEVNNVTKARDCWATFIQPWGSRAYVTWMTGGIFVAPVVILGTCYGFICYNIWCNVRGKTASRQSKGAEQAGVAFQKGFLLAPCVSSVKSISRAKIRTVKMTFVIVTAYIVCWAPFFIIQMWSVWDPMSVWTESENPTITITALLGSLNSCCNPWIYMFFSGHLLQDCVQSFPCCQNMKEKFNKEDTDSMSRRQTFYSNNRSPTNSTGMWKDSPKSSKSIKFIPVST
Nitric oxide synthase 1, sequence (P29476 whole entry): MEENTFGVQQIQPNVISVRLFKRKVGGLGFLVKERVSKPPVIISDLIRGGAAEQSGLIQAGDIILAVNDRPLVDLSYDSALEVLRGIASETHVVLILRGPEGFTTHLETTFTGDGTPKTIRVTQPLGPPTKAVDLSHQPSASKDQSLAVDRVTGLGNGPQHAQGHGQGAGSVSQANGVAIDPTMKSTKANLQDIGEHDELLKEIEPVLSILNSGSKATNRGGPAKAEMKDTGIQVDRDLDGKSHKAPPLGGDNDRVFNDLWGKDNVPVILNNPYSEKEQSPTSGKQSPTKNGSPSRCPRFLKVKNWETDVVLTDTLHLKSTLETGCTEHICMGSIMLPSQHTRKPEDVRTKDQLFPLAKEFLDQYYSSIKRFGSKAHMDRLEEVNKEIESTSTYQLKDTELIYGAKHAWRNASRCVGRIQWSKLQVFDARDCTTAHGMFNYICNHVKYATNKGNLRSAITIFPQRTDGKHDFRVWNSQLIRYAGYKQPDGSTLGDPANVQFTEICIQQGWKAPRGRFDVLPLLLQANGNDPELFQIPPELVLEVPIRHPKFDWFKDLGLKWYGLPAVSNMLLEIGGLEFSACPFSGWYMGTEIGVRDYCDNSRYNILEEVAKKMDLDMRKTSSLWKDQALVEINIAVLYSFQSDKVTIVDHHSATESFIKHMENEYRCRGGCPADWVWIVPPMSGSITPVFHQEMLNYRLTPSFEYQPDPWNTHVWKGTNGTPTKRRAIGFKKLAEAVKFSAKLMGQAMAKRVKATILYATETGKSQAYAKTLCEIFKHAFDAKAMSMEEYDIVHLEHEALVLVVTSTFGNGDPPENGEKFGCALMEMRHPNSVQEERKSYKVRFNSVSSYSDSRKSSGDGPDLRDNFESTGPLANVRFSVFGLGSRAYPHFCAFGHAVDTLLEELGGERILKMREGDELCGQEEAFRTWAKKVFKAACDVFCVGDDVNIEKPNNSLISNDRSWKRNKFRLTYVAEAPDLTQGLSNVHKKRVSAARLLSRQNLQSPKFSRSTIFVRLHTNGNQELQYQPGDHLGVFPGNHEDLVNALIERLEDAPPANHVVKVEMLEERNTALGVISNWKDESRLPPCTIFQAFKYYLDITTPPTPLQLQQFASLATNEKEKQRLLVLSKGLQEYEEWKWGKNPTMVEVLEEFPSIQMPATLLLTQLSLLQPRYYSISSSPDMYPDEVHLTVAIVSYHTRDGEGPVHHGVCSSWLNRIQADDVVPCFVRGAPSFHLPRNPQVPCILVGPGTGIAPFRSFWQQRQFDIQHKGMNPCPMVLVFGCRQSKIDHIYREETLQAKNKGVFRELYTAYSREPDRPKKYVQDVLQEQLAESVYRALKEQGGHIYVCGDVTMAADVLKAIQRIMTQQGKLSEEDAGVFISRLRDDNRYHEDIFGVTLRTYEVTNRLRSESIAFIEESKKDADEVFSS

On to `CCCCC(=O)N(Cc1ccc(-c2ccccc2-c2nnn[nH]2)cc1)[C@H](C(=O)O)C(C)C`, for which the IC50 result (in experiment [1]; in experiment [2]; on Cathepsin G; against Neutrophil elastase; in experiment [3] (cho); at Vasopressin V1a receptor) was “Not Active” each time. Moreover, the IC50 entry (against Nitric oxide synthase 1; in experiment [4]) was “Not Active” each time.
With `O=C(O)COc1ccc(C(=O)c2cccs2)c(Cl)c1Cl`, the IC50 result (in experiment [1]; in experiment [2]; against Cathepsin G; on Neutrophil elastase; in experiment [3] (cho); against Vasopressin V1a receptor) was “Not Active” throughout. In addition, the IC50 result (on Nitric oxide synthase 1; in experiment [4]) was “Not Active” each time.
Regarding `CN1[C@@H]2CC[C@H]1C[C@@H](OC(c1ccccc1)c1ccccc1)C2` [BENZTROPINE], the IC50 in experiment [1] (read-out: IC50) is 142 nM; in experiment [2], “Not Active”; on Cathepsin G, “Not Active”; against Neutrophil elastase, “Not Active”; in experiment [3] (cho), “Not Active”; on Vasopressin V1a receptor, “Not Active”. Besides, the IC50 result (against Nitric oxide synthase 1; in experiment [4]) was “Not Active” each time. Besides, the Ki in experiment [1] was 57 nM.
`C[C@@](Cc1ccc(O)c(O)c1)(NN)C(=O)O.O` [CARBIDOPA]: the IC50 result (in experiment [1]; in experiment [2]; at Cathepsin G; against Neutrophil elastase; in experiment [3] (cho); against Vasopressin V1a receptor) was “Not Active” in each case. For the same compound, the IC50 entry (against Nitric oxide synthase 1; in experiment [4]) was “Not Active” in each case.
Turning to `CN1CCN(C2=Nc3cc(Cl)ccc3Nc3ccccc32)CC1` [CLOZAPINE], the IC50 entry (in experiment [2]; at Cathepsin G; on Neutrophil elastase; in experiment [3] (cho); against Vasopressin V1a receptor; at Nitric oxide synthase 1) was “Not Active” in each case. For the same compound, the IC50 result in experiment [4] is listed as “Not Active”.
With `CC(C)NC[C@@H](O)COc1cccc2ccccc12` [DEXPROPRANOLOL], the IC50 result (in experiment [1]; in experiment [2]; against Cathepsin G; against Neutrophil elastase; against Vasopressin V1a receptor; against Nitric oxide synthase 1) was “Not Active” throughout. In addition, in experiment [4], the IC50 result is recorded as “Not Active”.
With `CC(C)NC[C@H](O)COc1cccc2ccccc12` [LEVOPROPRANOLOL], the IC50 entry (in experiment [1]; in experiment [2]; against Cathepsin G; against Neutrophil elastase; on Vasopressin V1a receptor; against Nitric oxide synthase 1) was “Not Active” each time. Moreover, the IC50 entry in experiment [4] is on record as “Not Active”.
With `O=C(O)CCCCC1CCSS1` (stereo not drawn) [LIPOIC ACID, ALPHA], the IC50 result (in experiment [1]; in experiment [2]; against Cathepsin G; against Neutrophil elastase; in experiment [3] (cho); on Vasopressin V1a receptor) was “Not Active” throughout. Also, the IC50 entry (on Nitric oxide synthase 1; in experiment [4]) was “Not Active” in each case.
Consider `CN(C)C(=O)C(CCN1CCC(O)(c2ccc(Cl)cc2)CC1)(c1ccccc1)c1ccccc1` [LOPERAMIDE], for which the IC50 in experiment [1] (read-out: IC50) is 6220 nM; in experiment [2] it was “Not Active”; at Cathepsin G it was “Not Active”; against Neutrophil elastase, “Not Active”; in experiment [3] (read-out: IC50), 3010 nM; at Vasopressin V1a receptor it was “Not Active”. Besides, the IC50 entry (on Nitric oxide synthase 1; in experiment [4]) was “Not Active” throughout. Moreover, the Ki in experiment [1] turned out to be 2520 nM; in experiment [3] (read-out: Ki), 2070 nM.
Consider `Clc1ccc(COC(Cn2ccnc2)c2ccc(Cl)cc2Cl)c(Cl)c1` (configuration not stated) [MICONAZOLE], for which the IC50 result (in experiment [1]; in experiment [2]; against Cathepsin G; at Neutrophil elastase; in experiment [3] (cho); at Vasopressin V1a receptor) was “Not Active” throughout. Besides, the IC50 entry (at Nitric oxide synthase 1; in experiment [4]) was “Not Active” in each case.
For `Oc1ccc2c3c1O[C@H]1[C@@H](O)CC[C@@]4(O)[C@@H](C2)N(CC2CCC2)CC[C@]314` [NALBUPHINE], the IC50 result (in experiment [1]; in experiment [2]; at Cathepsin G; against Neutrophil elastase; in experiment [3] (cho); at Vasopressin V1a receptor) was “Not Active” each time. For the same compound, the IC50 entry (against Nitric oxide synthase 1; in experiment [4]) was “Not Active” throughout.
In the case of `C[C@]12C=CC(=O)C=C1CC[C@@H]1[C@@H]2C(=O)C[C@@]2(C)[C@H]1CC[C@]2(O)C(=O)CO` [PREDNISONE], the IC50 entry (in experiment [1]; in experiment [2]; against Cathepsin G; against Neutrophil elastase; in experiment [3] (cho); against Vasopressin V1a receptor) was “Not Active” each time. Further, the concentration for half-maximal inhibition (IC50) entry (on Nitric oxide synthase 1; in experiment [4]) was “Not Active” in each case.
With `OCCOCCN1CCN(C2=Nc3ccccc3Sc3ccccc32)CC1` [QUETIAPINE], the IC50 entry (in experiment [2]; against Cathepsin G; against Neutrophil elastase; in experiment [3] (cho); at Vasopressin V1a receptor; at Nitric oxide synthase 1) was “Not Active” in each case. The IC50 result in experiment [4] is recorded as “Not Active”.
As for `COC(=O)[C@H]1[C@H]2C[C@@H]3c4[nH]c5cc(OC)ccc5c4CCN3C[C@H]2C[C@@H](OC(=O)c2cc(OC)c(OC)c(OC)c2)[C@@H]1OC` [RESERPINE], the IC50 entry (in experiment [1]; in experiment [2]; against Cathepsin G; against Neutrophil elastase; in experiment [3] (cho); against Vasopressin V1a receptor) was “Not Active” in each case. The concentration for half-maximal inhibition (IC50) entry (against Nitric oxide synthase 1; in experiment [4]) was “Not Active” each time.
Consider `O=C(O)c1ccccc1O` [SALICYLIC ACID], for which the IC50 result (in experiment [1]; in experiment [2]; against Cathepsin G; against Neutrophil elastase; in experiment [3] (cho); against Vasopressin V1a receptor) was “Not Active” throughout. In addition, the IC50 result (against Nitric oxide synthase 1; in experiment [4]) was “Not Active” throughout.
In the case of `C[S+]([O-])c1ccc(-c2nc(-c3ccncc3)c(-c3ccc(F)cc3)[nH]2)cc1` (configuration not stated) [SB-203580], the IC50 result (in experiment [1]; in experiment [2]; against Cathepsin G; at Neutrophil elastase; in experiment [3] (cho); against Vasopressin V1a receptor) was “Not Active” in each case. The IC50 entry (at Nitric oxide synthase 1; in experiment [4]) was “Not Active” throughout.

The values above are taken from ChEMBL document CHEMBL1909046, “DrugMatrix in vitro pharmacology data”.
